Assays:
[1] = Highest frequency of moderate liver toxicity observed during clinical trials, expressed as a percentage. [column '% BIOL' in source]; settings: human
[2] = Highest frequency of acute liver toxicity observed during clinical trials, expressed as a percentage. [column '% AIGUE' in source]; settings: human
[3] = Times to onset, minimal and maximal, observed in the indexed observations. [column 'DELAI' in source]; settings: human
[4] = Proposed mechanism(s) of liver damage. [column 'MEC' in source]; settings: human
[5] = human, serum
[6] = human, serum; remark: listed apart in the source
[7] = human
[8] = human; remark: listed apart in the source
[9] = human; remark: listed apart in the source
[10] = human, serum, 4383 h
[11] = human; remark: listed apart in the source
[12] = human; remark: listed apart in the source
[13] = human; remark: listed apart in the source
[14] = human; remark: listed apart in the source
[15] = human; remark: listed apart in the source
[16] = human; remark: listed apart in the source
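Wherever Hepatotoxicity (association with vascular disease) is given: count of indexed literature references reporting vascular liver injury in humans, e.g. peliosis hepatitis, hepatic veno-occlusive disease or Budd-Chiari syndrome.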
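Wherever Hepatotoxicity (benign tumour) is given: value is a count of indexed literature references citing a benign tumour confirmed by histopathology.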
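Wherever Hepatotoxicity (choleostasis) is given: human cholestatic liver injury, shown by histopathology or by peak ALT or AST elevation over alkaline phosphatase ratio below 2, value counts indexed literature reports.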
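Wherever Hepatotoxicity (chronic liver disease) is given: chronic liver injury confirmed by histopathology or persistently raised serum aminotransferase activity beyond 6 months, value given as the count of indexed literature references.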
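Wherever Hepatotoxicity (cirrhosis) is given: value is a count of indexed literature references reporting cirrhosis confirmed by histopathology.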
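Wherever Hepatotoxicity (cytolytic) is given: human cytolytic liver injury, shown by histopathology or by a ratio above 5 of peak ALT or AST elevation to alkaline phosphatase elevation, value counts indexed references.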
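Wherever Hepatotoxicity (granulomatous hepatitis) is given: value is a count of indexed literature references reporting granulomatous liver disease confirmed by histopathology.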
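Wherever Hepatotoxicity (malignant tumour) is given: malignant tumour confirmed by histopathology, value gives the count of indexed literature references reporting it.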
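Wherever Hepatotoxicity (severe hepatitis) is given: human clinical data: severe hepatitis, meaning potentially life-threatening liver failure or clinically observed cases, the value counts how many indexed literature references report it.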
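Wherever Hepatotoxicity (steatosis) is given: steatosis confirmed by histopathology, value is the count of indexed references.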

Structure (SMILES): COc1cnc(NS(=O)(=O)c2ccc(N)cc2)nc1
- Hepatotoxicity (moderate) [1]: 0%
- Hepatotoxicity (acute) [2]: 0%
- Hepatotoxicity (time to onset) [3]: 10 days
- Hepatotoxicity (mechanism) [4]: Allergic
- Hepatotoxicity (moderate) [5]: 0
- Hepatotoxicity (acute) [6]: 2
- Hepatotoxicity (cytolytic) [7]: 0
- Hepatotoxicity (choleostasis) [8]: 1
- Hepatotoxicity (severe hepatitis) [9]: 0
- Hepatotoxicity (chronic liver disease) [10]: 0
- Hepatotoxicity (cirrhosis) [11]: 0
- Hepatotoxicity (granulomatous hepatitis) [12]: 0
- Hepatotoxicity (association with vascular disease) [13]: 0
- Hepatotoxicity (steatosis) [14]: 0
- Hepatotoxicity (malignant tumour) [15]: 0
- Hepatotoxicity (benign tumour) [16]: 0

Structure (SMILES): CC(O)CCC(=O)c1ccoc1 (centres undefined)
- Hepatotoxicity (moderate) [1]: 0%
- Hepatotoxicity (acute) [2]: 11.3%
- Hepatotoxicity (time to onset) [3]: 2 days - 8 days
- Hepatotoxicity (mechanism) [4]: Dose-dependant
- Hepatotoxicity (moderate) [5]: 0
- Hepatotoxicity (acute) [6]: 1
- Hepatotoxicity (cytolytic) [7]: 0
- Hepatotoxicity (choleostasis) [8]: 0
- Hepatotoxicity (severe hepatitis) [9]: 1
- Hepatotoxicity (chronic liver disease) [10]: 0
- Hepatotoxicity (cirrhosis) [11]: 0
- Hepatotoxicity (granulomatous hepatitis) [12]: 0
- Hepatotoxicity (association with vascular disease) [13]: 0
- Hepatotoxicity (steatosis) [14]: 0
- Hepatotoxicity (malignant tumour) [15]: 0
- Hepatotoxicity (benign tumour) [16]: 0

Structure (SMILES): O=C(O)c1ccccc1O.O=C(O)c1ccccc1O.O=C(O)c1ccccc1O
- Hepatotoxicity (moderate) ([1]; Liver): 0%
- Hepatotoxicity (acute) ([2]; Liver): 0%
- Hepatotoxicity (time to onset) [3]: 3 days
- Hepatotoxicity (mechanism) ([4]; Liver): Allergic
- Hepatotoxicity (moderate) [5]: 0
- Hepatotoxicity (acute) [6]: 1
- Hepatotoxicity (cytolytic) ([7]; Liver): 1
- Hepatotoxicity (choleostasis) ([8]; Liver): 0
- Hepatotoxicity (severe hepatitis) ([9]; Liver): 1
- Hepatotoxicity (chronic liver disease) [10]: 0
- Hepatotoxicity (cirrhosis) [11]: 0
- Hepatotoxicity (granulomatous hepatitis) ([12]; Liver): 0
- Hepatotoxicity (association with vascular disease) [13]: 0
- Hepatotoxicity (steatosis) [14]: 0
- Hepatotoxicity (malignant tumour) [15]: 0
- Hepatotoxicity (benign tumour) [16]: 0

Structure (SMILES): CNC=O
- Hepatotoxicity (moderate) [1]: 75%
- Hepatotoxicity (acute) [2]: 0%
- Hepatotoxicity (time to onset) [3]: 3 days - 1 week
- Hepatotoxicity (mechanism) [4]: Dose-dependant
- Hepatotoxicity (moderate) [5]: 13
- Hepatotoxicity (acute) [6]: 4
- Hepatotoxicity (cytolytic) [7]: 1
- Hepatotoxicity (choleostasis) [8]: 0
- Hepatotoxicity (severe hepatitis) [9]: 2
- Hepatotoxicity (chronic liver disease) [10]: 0
- Hepatotoxicity (cirrhosis) [11]: 0
- Hepatotoxicity (granulomatous hepatitis) [12]: 0
- Hepatotoxicity (association with vascular disease) [13]: 0
- Hepatotoxicity (steatosis) [14]: 0
- Hepatotoxicity (malignant tumour) [15]: 0
- Hepatotoxicity (benign tumour) [16]: 0

Structure (SMILES): CC(=O)Nc1cc([As](=O)(O)O)ccc1O [ACETARSONE]
- Hepatotoxicity (moderate) [1]: 0%
- Hepatotoxicity (acute) [2]: 0%
- Hepatotoxicity (time to onset) [3]: 2 cures - 3 cures
- Hepatotoxicity (mechanism) [4]: Allergic
- Hepatotoxicity (moderate) [5]: 0
- Hepatotoxicity (acute) [6]: 2
- Hepatotoxicity (cytolytic) [7]: 0
- Hepatotoxicity (choleostasis) [8]: 0
- Hepatotoxicity (severe hepatitis) [9]: 0
- Hepatotoxicity (chronic liver disease) [10]: 0
- Hepatotoxicity (cirrhosis) [11]: 0
- Hepatotoxicity (granulomatous hepatitis) [12]: 0
- Hepatotoxicity (association with vascular disease) [13]: 0
- Hepatotoxicity (steatosis) [14]: 0
- Hepatotoxicity (malignant tumour) [15]: 0
- Hepatotoxicity (benign tumour) [16]: 0

Structure (SMILES): CC(=O)c1ccc(S(=O)(=O)NC(=O)NC2CCCCC2)cc1 [ACETOHEXAMIDE]
- Hepatotoxicity (moderate) [1]: 0%
- Hepatotoxicity (acute) [2]: 0%
- Hepatotoxicity (time to onset) [3]: 3 weeks - 17 months
- Hepatotoxicity (mechanism) [4]: Dose-dependant
- Hepatotoxicity (moderate) [5]: 0
- Hepatotoxicity (acute) [6]: 6
- Hepatotoxicity (cytolytic) [7]: 2
- Hepatotoxicity (choleostasis) [8]: 0
- Hepatotoxicity (severe hepatitis) [9]: 0
- Hepatotoxicity (chronic liver disease) [10]: 0
- Hepatotoxicity (cirrhosis) [11]: 1
- Hepatotoxicity (granulomatous hepatitis) [12]: 0
- Hepatotoxicity (association with vascular disease) [13]: 0
- Hepatotoxicity (steatosis) [14]: 0
- Hepatotoxicity (malignant tumour) [15]: 0
- Hepatotoxicity (benign tumour) [16]: 0

Structure (SMILES): CCCCN1CCCCC1C(=O)Nc1c(C)cccc1C (centres undefined) [BUPIVACAINE]
- Hepatotoxicity (moderate) [1]: 0%
- Hepatotoxicity (acute) [2]: 0%
- Hepatotoxicity (time to onset) [3]: 2 weeks - 1 month
- Hepatotoxicity (mechanism) [4]: Allergic
- Hepatotoxicity (moderate) [5]: 0
- Hepatotoxicity (acute) [6]: 2
- Hepatotoxicity (cytolytic) [7]: 1
- Hepatotoxicity (choleostasis) [8]: 2
- Hepatotoxicity (severe hepatitis) [9]: 0
- Hepatotoxicity (chronic liver disease) [10]: 0
- Hepatotoxicity (cirrhosis) [11]: 0
- Hepatotoxicity (granulomatous hepatitis) [12]: 0
- Hepatotoxicity (association with vascular disease) [13]: 0
- Hepatotoxicity (steatosis) [14]: 0
- Hepatotoxicity (malignant tumour) [15]: 0
- Hepatotoxicity (benign tumour) [16]: 0

Structure (SMILES): CC12CCC(CC1=O)C2(C)C (centres undefined) [CAMPHOR]
- Hepatotoxicity (moderate) [1]: 0%
- Hepatotoxicity (acute) [2]: 0%
- Hepatotoxicity (time to onset) [3]: 3 days
- Hepatotoxicity (mechanism) [4]: Dose-dependant
- Hepatotoxicity (moderate) [5]: 0
- Hepatotoxicity (acute) [6]: 1
- Hepatotoxicity (cytolytic) [7]: 1
- Hepatotoxicity (choleostasis) [8]: 0
- Hepatotoxicity (severe hepatitis) [9]: 0
- Hepatotoxicity (chronic liver disease) [10]: 0
- Hepatotoxicity (cirrhosis) [11]: 0
- Hepatotoxicity (granulomatous hepatitis) [12]: 0
- Hepatotoxicity (association with vascular disease) [13]: 0
- Hepatotoxicity (steatosis) [14]: 0
- Hepatotoxicity (malignant tumour) [15]: 0
- Hepatotoxicity (benign tumour) [16]: 0

Structure (SMILES): CC(C(=O)O)c1ccc2c(c1)[nH]c1ccc(Cl)cc12 (centres undefined) [CARPROFEN]
- Hepatotoxicity (moderate) [1]: 56.3%
- Hepatotoxicity (acute) [2]: 0%
- Hepatotoxicity (time to onset) [3]: 1 week - 1 month
- Hepatotoxicity (mechanism) [4]: Dose-dependant
- Hepatotoxicity (moderate) [5]: 5
- Hepatotoxicity (acute) [6]: 0
- Hepatotoxicity (cytolytic) [7]: 0
- Hepatotoxicity (choleostasis) [8]: 0
- Hepatotoxicity (severe hepatitis) [9]: 0
- Hepatotoxicity (chronic liver disease) [10]: 0
- Hepatotoxicity (cirrhosis) [11]: 0
- Hepatotoxicity (granulomatous hepatitis) [12]: 0
- Hepatotoxicity (association with vascular disease) [13]: 0
- Hepatotoxicity (steatosis) [14]: 0
- Hepatotoxicity (malignant tumour) [15]: 0
- Hepatotoxicity (benign tumour) [16]: 0

Structure (SMILES): CC1=C(C(=O)O)N2C(=O)[C@@H](NC(=O)[C@H](N)c3ccc(O)cc3)[C@H]2SC1 [CEFADROXIL]
- Hepatotoxicity (moderate) ([1]; Liver): 3.1%
- Hepatotoxicity (acute) ([2]; Liver): 0%
- Hepatotoxicity (time to onset) [3]: 4 days - 6 days
- Hepatotoxicity (mechanism) [4]: Allergic
- Hepatotoxicity (moderate) [5]: 1
- Hepatotoxicity (acute) [6]: 2
- Hepatotoxicity (cytolytic) [7]: 1
- Hepatotoxicity (choleostasis) [8]: 2
- Hepatotoxicity (severe hepatitis) ([9]; Liver): 0
- Hepatotoxicity (chronic liver disease) [10]: 0
- Hepatotoxicity (cirrhosis) [11]: 0
- Hepatotoxicity (granulomatous hepatitis) [12]: 0
- Hepatotoxicity (association with vascular disease) [13]: 0
- Hepatotoxicity (steatosis) [14]: 0
- Hepatotoxicity (malignant tumour) [15]: 0
- Hepatotoxicity (benign tumour) [16]: 0

Structure (SMILES): Cc1nnc(SCC2=C(C(=O)O)N3C(=O)[C@@H](NC(=O)Cn4cnnn4)[C@H]3SC2)s1 [CEFAZOLIN]
- Hepatotoxicity (moderate) ([1]; Liver): 42.9%
- Hepatotoxicity (acute) ([2]; Liver): 0%
- Hepatotoxicity (time to onset) [3]: 1 week - 25 days
- Hepatotoxicity (mechanism) [4]: Allergic
- Hepatotoxicity (moderate) [5]: 11
- Hepatotoxicity (acute) [6]: 2
- Hepatotoxicity (cytolytic) [7]: 1
- Hepatotoxicity (choleostasis) [8]: 1
- Hepatotoxicity (severe hepatitis) ([9]; Liver): 0
- Hepatotoxicity (chronic liver disease) [10]: 0
- Hepatotoxicity (cirrhosis) [11]: 0
- Hepatotoxicity (granulomatous hepatitis) [12]: 0
- Hepatotoxicity (association with vascular disease) [13]: 0
- Hepatotoxicity (steatosis) [14]: 0
- Hepatotoxicity (malignant tumour) [15]: 0
- Hepatotoxicity (benign tumour) [16]: 0

Structure (SMILES): O=C(O)C1=C(CSc2nnnn2CS(=O)(=O)O)CS[C@@H]2[C@H](NC(=O)[C@H](O)c3ccccc3)C(=O)N12 [CEFONICID]
- Hepatotoxicity (moderate) [1]: 29%
- Hepatotoxicity (acute) [2]: 5.9%
- Hepatotoxicity (time to onset) [3]: 4 days - 20 days
- Hepatotoxicity (mechanism) [4]: Allergic
- Hepatotoxicity (moderate) [5]: 10
- Hepatotoxicity (acute) [6]: 2
- Hepatotoxicity (cytolytic) [7]: 0
- Hepatotoxicity (choleostasis) [8]: 0
- Hepatotoxicity (severe hepatitis) [9]: 0
- Hepatotoxicity (chronic liver disease) [10]: 0
- Hepatotoxicity (cirrhosis) [11]: 0
- Hepatotoxicity (granulomatous hepatitis) [12]: 0
- Hepatotoxicity (association with vascular disease) [13]: 0
- Hepatotoxicity (steatosis) [14]: 0
- Hepatotoxicity (malignant tumour) [15]: 0
- Hepatotoxicity (benign tumour) [16]: 0

Structure (SMILES): CO/N=C(\C(=O)N[C@@H]1C(=O)N2C(C(=O)OC(C)OC(C)=O)=C(COC(N)=O)CS[C@H]12)c1ccco1 (some centres undefined) [CEFUROXIME AXETIL]
- Hepatotoxicity (moderate) [1]: 20%
- Hepatotoxicity (acute) [2]: 0.2%
- Hepatotoxicity (time to onset) [3]: 4 days
- Hepatotoxicity (mechanism) [4]: Allergic
- Hepatotoxicity (moderate) [5]: 31
- Hepatotoxicity (acute) [6]: 2
- Hepatotoxicity (cytolytic) [7]: 0
- Hepatotoxicity (choleostasis) [8]: 1
- Hepatotoxicity (severe hepatitis) [9]: 0
- Hepatotoxicity (chronic liver disease) [10]: 0
- Hepatotoxicity (cirrhosis) [11]: 0
- Hepatotoxicity (granulomatous hepatitis) [12]: 0
- Hepatotoxicity (association with vascular disease) [13]: 0
- Hepatotoxicity (steatosis) [14]: 0
- Hepatotoxicity (malignant tumour) [15]: 0
- Hepatotoxicity (benign tumour) [16]: 0

Structure (SMILES): CO/N=C(\C(=O)N[C@@H]1C(=O)N2C(C(=O)O)=C(COC(N)=O)CS[C@H]12)c1ccco1 [CEFUROXIME]
- Hepatotoxicity (moderate) [1]: 29.1%
- Hepatotoxicity (acute) [2]: 0%
- Hepatotoxicity (time to onset) [3]: 2 days
- Hepatotoxicity (mechanism) [4]: Allergic
- Hepatotoxicity (moderate) [5]: 8
- Hepatotoxicity (acute) [6]: 1
- Hepatotoxicity (cytolytic) [7]: 1
- Hepatotoxicity (choleostasis) [8]: 0
- Hepatotoxicity (severe hepatitis) [9]: 1
- Hepatotoxicity (chronic liver disease) [10]: 0
- Hepatotoxicity (cirrhosis) [11]: 0
- Hepatotoxicity (granulomatous hepatitis) [12]: 0
- Hepatotoxicity (association with vascular disease) [13]: 0
- Hepatotoxicity (steatosis) [14]: 0
- Hepatotoxicity (malignant tumour) [15]: 0
- Hepatotoxicity (benign tumour) [16]: 0

Source: ChEMBL document CHEMBL3137667, “[Drug-induced liver injury; fourteenth updated edition of the bibliographic database of liver injuries and related drugs]” (Gastroenterol Clin Biol, 2004)
